Results reported in paper PMC12730265, “Combinatorial Antimicrobial Effects of Imidazolium-Based Ionic Liquids and Antifungals on Model Fungal Organisms” (Biomolecules, 2025).
Where two headings read alike, the source gives them in different places.

Tests used:
C. albicans [1] = assay: MIC50 by microbroth dilution; type: cell-based; conditions: Candida albicans, 48 h
Protocol: (§1) A single colony was picked from each streak to prepare overnight in 5 mL fresh YPD broth and placed into a tilted rotating incubator set at 30 °C and 40 rpm overnight. After ~16–20 h, a fresh dilution in media (1:200) was made and used for the experiment. […] Finally, diluted culture was added to each well of a sterile 96-well plate containing serially diluted aliquots of each RTIL to a total volume of 100 µL. The plate was incubated at 30 °C overnight with shaking for 24 and 48 h. At both timepoints, the yeast was manually resuspended in the plate by pipetting and we measured the OD600 using a Spectramax M5 multimode plate reader (Molecular Devices, San Jose, CA, USA).
(§2) The four species of yeast tested included three common lab strains of non-pathogenic yeast strains, S. boulardii, S. cerevisiae, and S. pombe, and one common human pathogen, C. albicans.

S. boulardii = assay: MIC50 by microbroth dilution; type: cell-based; conditions: Saccharomyces cerevisiae
Protocol: as §1, §2

S. cerevisiae = assay: MIC50 by microbroth dilution; type: cell-based; conditions: Saccharomyces cerevisiae
Protocol: as §1, §2

S. pombe = assay: MIC50 by microbroth dilution; type: cell-based; conditions: Schizosaccharomyces pombe
Protocol: as §1, §2

C. albicans [2] = assay: Checkerboard assay IL + Clotrimazole, growth on YPD plate post-treatment (fungicidal); type: cell-based; conditions: for average growth, visually scored (2 full, 1 interrupted, 0 no growth): [HMIM]Cl 0 mM
Protocol: C. albicans was grown overnight in YPD liquid media at 30 °C, at which point it was diluted into 10 mL of YPD media at 0.1 OD600 and was grown to mid-log phase 0.5 OD600 and subsequently diluted to 5 × 10^3 CFU/mL cells in YPD of which 180 μL of culture was distributed into a 96-well round-bottom culture dish. To this dish, 20 μL of IL, AF, or IL + AF was added to each well at concentrations indicated in each experiment. These culture plates were grown in an incubator shaker for 48 h at 30 °C, at which point the cultures were mixed by pipetting and then spotted onto YPD solid plates and allowed to grow for an additional 48 h. After 48 h, plates were visually scored for no growth (0), 50% growth (1), or 100% growth relative to PBS control (2). Experiments were performed in triplicate, and scores were averaged per well.
In order to evaluate if the same combinatorial effect was present in liquid culture and furthermore to identify the specific concentrations at which a combined effect may be present, checkerboard assays were performed. […] These assays were completed in triplicate for both [HMIM]Cl and [OMIM]Cl with the addition of Clotrimazole on C. albicans. In this assay, both IL and AF were loaded into a 96-well plate YPD liquid culture plate in double serial dilutions with decreasing IL from top to bottom and decreasing AF from left to right. Each well represents a different final concentration of both drugs in combination. Growth of the target microorganism was measured as growth in liquid media by OD600 nm, representing fungistatic interactions and [2] growth on a YPD plate post-treatment as fungicidal (Figure 4).
Checkerboard assays were performed in 96-well plates with Clotrimazole + [HMIM]Cl or [OMIM]Cl on C. albicans. These culture plates were grown in an incubator shaker for 48 h at 23 °C, and thereafter C. albicans was mixed by pipetting and then spotted onto YPD solid plates and allowed to grow for an additional 48 h. After 48 h, plates were visually scored for no growth (0), 50% growth (1), or 100% growth relative to PBS control (2). Experiments were performed in triplicate, and scores were averaged per well. […] We measured this by calculating the fractional inhibitory concentration (FIC) score ((MIC50 IL + AF)/(MIC50 AF)) + ((MIC50 IL + AF)/(MIC50 IL)). In this well-established measure of combined interactions, a score < 0.5 indicated synergistic interaction, 0.5–4 potential combinatorial interaction or no effect, and >4 antagonistic interaction.

HeLa cells = assay: Checkerboard cytotoxicity assay IL + Clotrimazole, CellTiter-Blue
Protocol: HeLa cells (Kyoto line) were grown at 37 °C in 5% CO2 using DMEM media with 4.5 g/L glucose + Sodium Pyruvate + L-Glutamine (VWRV02-0101) with 10% FBS. Antibiotics such as Pen/Strep were not used during treatment with ILs or AFs to exclude the possibility of interaction with other antibiotics. HeLa cells were grown to 70–90% confluency in T75 dishes; cells were dissociated with Trypsin/EDTA […] for 3 min and resuspended in 25 mL DMEM +10% FBS; 180 μL cells in media were added to each of the 96 wells on the plasma-treated culture plate and incubated at 37 °C overnight. Solutions of Clotrimazole plus either [HMIM]Cl and [OMIM]Cl were created and 20 μL of IL, AF, or IL + AF were added to 96-well plate and incubated at 37 °C for 24 h. Promega CellTiter-Blue Cell Viability reagent was used to evaluate cytotoxicity in accordance with the manufacturer’s guidelines. For each well, 20 μL of CellTiter-Blue was added and then the plates were incubated for either 1, 2, or 4 h and fluorescence was measured at Ex/EM 485/590 nm using a Biotek Synergy HT fluorometer Winooski, VT USA. EC50 and FIC calculations were performed using these treatments. EC50 calculations were performed using ATTB Bioquest online EC50 calculator and FIC scores were calculated as described in Doern et al..
One open question is whether addition of either of these ILs at sub-cytotoxic concentrations can improve effectiveness of AFs in fungi vs. mammalian cells. To evaluate this, we performed checkerboard assays for both [HMIM]Cl and [OMIM]Cl in the presence of Clotrimazole and calculated FIC scores as described in C. albicans checkerboard assays.

[3] = 50% growth after 48 h in YPD media, OD600, read-out: MIC50
[4] = in combination with Clotrimazole 4 mg/L

Clc1ccccc1C(c1ccccc1)(c1ccccc1)n1ccnc1 [Clotrimazole]
MIC50 (C. albicans [1]; [3]): 1 µg/mL | MIC50 (S. boulardii; [3]): 1 µg/mL | MIC50 (S. cerevisiae; [3]): 1 µg/mL | MIC50 (S. pombe; [3]): 1 µg/mL | average growth, visually scored (2 full, 1 interrupted, 0 no growth) (C. albicans [2]; Clotrimazole 0.1 mg/L): 2 | average growth, visually scored (2 full, 1 interrupted, 0 no growth) (C. albicans [2]; Clotrimazole 0.25 mg/L): 2 | average growth, visually scored (2 full, 1 interrupted, 0 no growth) (C. albicans [2]; Clotrimazole 0.5 mg/L): 2 | average growth, visually scored (2 full, 1 interrupted, 0 no growth) (C. albicans [2]; Clotrimazole 1 mg/L): 2 | average growth, visually scored (2 full, 1 interrupted, 0 no growth) (C. albicans [2]; Clotrimazole 2 mg/L): 1.67 | average growth, visually scored (2 full, 1 interrupted, 0 no growth) (C. albicans [2]; Clotrimazole 4 mg/L): 1.33 | average growth, visually scored (2 full, 1 interrupted, 0 no growth) (C. albicans [2]; Clotrimazole 8 mg/L): 1 | average growth, visually scored (2 full, 1 interrupted, 0 no growth) (C. albicans [2]; Clotrimazole 15 mg/L): 1 | average growth, visually scored (2 full, 1 interrupted, 0 no growth) (C. albicans [2]; Clotrimazole 31 mg/L): 1 | average growth, visually scored (2 full, 1 interrupted, 0 no growth) (C. albicans [2]; Clotrimazole 62 mg/L): 0.67 | average growth, visually scored (2 full, 1 interrupted, 0 no growth) (C. albicans [2]; Clotrimazole 125 mg/L): 0.67 | average growth, visually scored (2 full, 1 interrupted, 0 no growth) (C. albicans [2]; Clotrimazole 250 mg/L): 0.33 | Clotrimazole concentration at 50% growth (C. albicans [2]; with 0.39 mM [OMIM]Cl): 4 mg/L | Clotrimazole concentration at 50% growth (C. albicans [2]; with 1.562 mM [HMIM]Cl): 4 mg/L | Clotrimazole concentration used for FIC, alone (HeLa cells; human, 24 h): 250 mg/L

CCCCCCCCn1cc[n+](C)c1.[Cl-] [[OMIM]Cl, 1-octyl-3-methylimidazolium chloride]
MIC50 (C. albicans [1]; [3]): 3.12 mM | MIC50 (S. boulardii; [3]): 0.625 mM | MIC50 (S. cerevisiae; [3]): 0.625 mM | MIC50 (S. pombe; [3]): 1.25 mM | antifungal effect of IL without Clotrimazole (C. albicans [2]; [OMIM]Cl 6.25 mM): not completely fungicidal | IL concentration at 50% growth (MIC50 used for FIC) (C. albicans [2]; [4]): 0.39 mM | IL concentration used for FIC, IL alone (HeLa cells; IL alone): 3.125 mM | Cell Titer Blue Assay plate reading (HeLa cells; OMIM[Cl] 0.195312, Clotrimazole 0.03125 mg/mL): 553 | Cell Titer Blue Assay plate reading (HeLa cells; OMIM[Cl] 0.195312, Clotrimazole 0.0625 mg/mL): 506 | Cell Titer Blue Assay plate reading (HeLa cells; OMIM[Cl] 0.195312, Clotrimazole 0.125 mg/mL): 440 | Cell Titer Blue Assay plate reading (HeLa cells; OMIM[Cl] 0.195312, Clotrimazole 0.25 mg/mL): 135 | Cell Titer Blue Assay plate reading (HeLa cells; OMIM[Cl] 0.195312, Clotrimazole 0.5 mg/mL): 30 | Cell Titer Blue Assay plate reading (HeLa cells; OMIM[Cl] 0.195312, PBS instead of Clotrimazole): 524 | Cell Titer Blue Assay plate reading (HeLa cells; OMIM[Cl] 0.390625, Clotrimazole 0.03125 mg/mL): 343 | Cell Titer Blue Assay plate reading (HeLa cells; OMIM[Cl] 0.390625, Clotrimazole 0.0625 mg/mL): 333 | Cell Titer Blue Assay plate reading (HeLa cells; OMIM[Cl] 0.390625, Clotrimazole 0.125 mg/mL): 92 | Cell Titer Blue Assay plate reading (HeLa cells; OMIM[Cl] 0.390625, Clotrimazole 0.25 mg/mL): 161 | Cell Titer Blue Assay plate reading (HeLa cells; OMIM[Cl] 0.390625, Clotrimazole 0.5 mg/mL): 31 | Cell Titer Blue Assay plate reading (HeLa cells; OMIM[Cl] 0.390625, PBS instead of Clotrimazole): 533 | Cell Titer Blue Assay plate reading (HeLa cells; OMIM[Cl] 0.78125, Clotrimazole 0.03125 mg/mL): 128 | Cell Titer Blue Assay plate reading (HeLa cells; OMIM[Cl] 0.78125, Clotrimazole 0.0625 mg/mL): 121 | Cell Titer Blue Assay plate reading (HeLa cells; OMIM[Cl] 0.78125, Clotrimazole 0.125 mg/mL): 60 | Cell Titer Blue Assay plate reading (HeLa cells; OMIM[Cl] 0.78125, Clotrimazole 0.25 mg/mL): 66 | Cell Titer Blue Assay plate reading (HeLa cells; OMIM[Cl] 0.78125, Clotrimazole 0.5 mg/mL): 32 | Cell Titer Blue Assay plate reading (HeLa cells; OMIM[Cl] 0.78125, PBS instead of Clotrimazole): 180 | Cell Titer Blue Assay plate reading (HeLa cells; OMIM[Cl] 1.5625, Clotrimazole 0.03125 mg/mL): 126 | Cell Titer Blue Assay plate reading (HeLa cells; OMIM[Cl] 1.5625, Clotrimazole 0.0625 mg/mL): 45 | Cell Titer Blue Assay plate reading (HeLa cells; OMIM[Cl] 1.5625, Clotrimazole 0.125 mg/mL): 58 | Cell Titer Blue Assay plate reading (HeLa cells; OMIM[Cl] 1.5625, Clotrimazole 0.25 mg/mL): 33 | Cell Titer Blue Assay plate reading (HeLa cells; OMIM[Cl] 1.5625, Clotrimazole 0.5 mg/mL): 36 | Cell Titer Blue Assay plate reading (HeLa cells; OMIM[Cl] 1.5625, PBS instead of Clotrimazole): 206 | Cell Titer Blue Assay plate reading (HeLa cells; OMIM[Cl] 3.125, Clotrimazole 0.03125 mg/mL): 47 | Cell Titer Blue Assay plate reading (HeLa cells; OMIM[Cl] 3.125, Clotrimazole 0.0625 mg/mL): 37 | Cell Titer Blue Assay plate reading (HeLa cells; OMIM[Cl] 3.125, Clotrimazole 0.125 mg/mL): 36 | Cell Titer Blue Assay plate reading (HeLa cells; OMIM[Cl] 3.125, Clotrimazole 0.25 mg/mL): 36 | Cell Titer Blue Assay plate reading (HeLa cells; OMIM[Cl] 3.125, Clotrimazole 0.5 mg/mL): 38 | Cell Titer Blue Assay plate reading (HeLa cells; OMIM[Cl] 3.125, PBS instead of Clotrimazole): 47 | Cell Titer Blue Assay plate reading (HeLa cells; OMIM[Cl] 6.25, Clotrimazole 0.03125 mg/mL): 41 | Cell Titer Blue Assay plate reading (HeLa cells; OMIM[Cl] 6.25, Clotrimazole 0.0625 mg/mL): 38 | Cell Titer Blue Assay plate reading (HeLa cells; OMIM[Cl] 6.25, Clotrimazole 0.125 mg/mL): 39 | Cell Titer Blue Assay plate reading (HeLa cells; OMIM[Cl] 6.25, Clotrimazole 0.25 mg/mL): 39 | Cell Titer Blue Assay plate reading (HeLa cells; OMIM[Cl] 6.25, Clotrimazole 0.5 mg/mL): 40 | Cell Titer Blue Assay plate reading (HeLa cells; OMIM[Cl] 6.25, PBS instead of Clotrimazole): 41 | Cell Titer Blue Assay plate reading (HeLa cells; OMIM[Cl] 12.5, Clotrimazole 0.03125 mg/mL): 39 | Cell Titer Blue Assay plate reading (HeLa cells; OMIM[Cl] 12.5, Clotrimazole 0.0625 mg/mL): 39 | Cell Titer Blue Assay plate reading (HeLa cells; OMIM[Cl] 12.5, Clotrimazole 0.125 mg/mL): 38 | Cell Titer Blue Assay plate reading (HeLa cells; OMIM[Cl] 12.5, Clotrimazole 0.25 mg/mL): 37 | Cell Titer Blue Assay plate reading (HeLa cells; OMIM[Cl] 12.5, Clotrimazole 0.5 mg/mL): 40 | Cell Titer Blue Assay plate reading (HeLa cells; OMIM[Cl] 12.5, PBS instead of Clotrimazole): 38

CCCCCCn1cc[n+](C)c1.[Cl-] [[HMIM]Cl, 1-hexyl-3-methylimidazolium chloride]
MIC50 (C. albicans [1]): 25 mM | MIC50 (S. boulardii; 48 h): 6.25 mM | MIC50 (S. cerevisiae; 48 h): 6.25 mM | MIC50 (S. pombe; 48 h): 6.25 mM | IL concentration at 50% growth (MIC50 used for FIC) (C. albicans [2]; IL alone, fungicidal checkerboard): 6.25 mM | antifungal effect of IL without Clotrimazole (C. albicans [2]; [HMIM]Cl 12.5 mM): not completely fungicidal | IL concentration at 50% growth (MIC50 used for FIC) (C. albicans [2]; [4]): 1.562 mM | IL concentration used for FIC, IL alone (HeLa cells; human, 24 h): 12.5 mM | IL concentration used for FIC, in combination (HeLa cells; human, 24 h): 12.5 mM
